Structures can show the parent of a compound that is named as a salt.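 Test compounds were applied to cells in 96-well plates for 48 hours at 5 doses. GI50 is the concentration that inhibits growth by half.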 Calls of active or inactive are those of the source. No stated cut-off is given here; in the data, active = GI50 up to about 1.1 µM and inactive = higher.
Legend:
Experiment in all cases: NCI tumour cell line growth inhibition, 48 h
HCT-116 = system: HCT-116
HOP-92 = system: HOP-92
LOX IMVI = system: LOX IMVI
OVCAR-4 = system: OVCAR-4
BT-549 = system: BT-549
SK-MEL-2 = system: SK-MEL-2
CAKI-1 = system: CAKI-1
HCC 2998 = system: HCC 2998
SN12C = system: SN12C
MDA-MB-231 = system: MDA-MB-231
KM12 = system: KM12
K562 = system: K562
SNB-75 = system: SNB-75
RXF 393 = system: RXF 393
SR = system: SR
IGROV-1 = system: IGROV-1
OVCAR-8 = system: OVCAR-8
ACHN = system: ACHN
HOP-62 = system: HOP-62
MCF7 = system: MCF7

Compound: CCCCOC(=O)CC(CC(=O)OCCCC)(OC(C)=O)C(=O)OCCCC [ACETYLTRIBUTYL CITRATE]
- GI50 (HCT-116): 56.4 µM (inactive)
- GI50 (HOP-92): 72.4 µM (inactive)
- GI50 (LOX IMVI): 150 µM (inactive)
- GI50 (OVCAR-4): > 81.5 µM (inactive)
- GI50 (BT-549): > 200 µM (inactive)
- GI50 (SK-MEL-2): > 200 µM (inactive)
- GI50 (CAKI-1): > 200 µM (inactive)
- GI50 (HCC 2998): > 200 µM (inactive)
- GI50 (SN12C): > 164 µM (inactive)
- GI50 (MDA-MB-231): > 200 µM (inactive)
- GI50 (KM12): > 112 µM (inactive)
- GI50 (K562): 29.6 µM (inactive)
- GI50 (SNB-75): 8.49 µM (inactive)
- GI50 (RXF 393): 1.1 µM (active)
- GI50 (SR): 14.7 µM (inactive)
- GI50 (IGROV-1): > 200 µM (inactive)
- GI50 (OVCAR-8): > 190 µM (inactive)
- GI50 (ACHN): > 200 µM (inactive)
- GI50 (HOP-62): > 200 µM (inactive)
- GI50 (MCF7): 39.1 µM (inactive)

Compound: Oc1nc(-c2ccc3ccccc3c2)nc2ccccc12
- GI50 (HCT-116): 18.7 µM (inactive)
- GI50 (HOP-92): 17.4 µM (inactive)
- GI50 (LOX IMVI): > 100 µM (inactive)
- GI50 (OVCAR-4): 3.81 µM (inactive)
- GI50 (BT-549): > 100 µM (inactive)
- GI50 (SK-MEL-2): 91.8 µM (inactive)
- GI50 (CAKI-1): 75 µM (inactive)
- GI50 (HCC 2998): 62.5 µM (inactive)
- GI50 (SN12C): 54.1 µM (inactive)
- GI50 (MDA-MB-231): 29 µM (inactive)
- GI50 (KM12): > 100 µM (inactive)
- GI50 (K562): > 100 µM (inactive)
- GI50 (SNB-75): 4.53 µM (inactive)
- GI50 (RXF 393): 25.4 µM (inactive)
- GI50 (SR): 20.4 µM (inactive)
- GI50 (IGROV-1): 19.8 µM (inactive)
- GI50 (OVCAR-8): 12.7 µM (inactive)
- GI50 (ACHN): 13.9 µM (inactive)
- GI50 (HOP-62): 14.4 µM (inactive)
- GI50 (MCF7): 64.4 µM (inactive)

Compound: OC[P+](CO)(CO)C12CC3CC(CC(C3)C1)C2
- GI50 (HCT-116): > 87.3 µM (inactive)
- GI50 (HOP-92): > 86.9 µM (inactive)
- GI50 (LOX IMVI): 4.67 µM (inactive)
- GI50 (OVCAR-4): > 48.3 µM (inactive)
- GI50 (BT-549): > 100 µM (inactive)
- GI50 (SK-MEL-2): > 100 µM (inactive)
- GI50 (CAKI-1): > 100 µM (inactive)
- GI50 (HCC 2998): > 100 µM (inactive)
- GI50 (SN12C): > 100 µM (inactive)
- GI50 (MDA-MB-231): > 100 µM (inactive)
- GI50 (KM12): > 100 µM (inactive)
- GI50 (K562): 24.5 µM (inactive)
- GI50 (SNB-75): > 64.4 µM (inactive)
- GI50 (RXF 393): > 63.2 µM (inactive)
- GI50 (SR): 16.7 µM (inactive)
- GI50 (IGROV-1): 4.85 µM (inactive)
- GI50 (OVCAR-8): > 100 µM (inactive)
- GI50 (ACHN): > 100 µM (inactive)
- GI50 (HOP-62): > 100 µM (inactive)
- GI50 (MCF7): > 100 µM (inactive)

Compound: C=C1C(=O)OC2C1C(OC(=O)/C(C)=C/C)CC(O)(CCl)C1C(O)C=C(C)C21O (stereo not given)
- GI50 (HCT-116): 6.28 µM (inactive)
- GI50 (HOP-92): 8.93 µM (inactive)
- GI50 (LOX IMVI): 4.89 µM (inactive)
- GI50 (OVCAR-4): 14.2 µM (inactive)
- GI50 (BT-549): 9.48 µM (inactive)
- GI50 (SK-MEL-2): 21 µM (inactive)
- GI50 (CAKI-1): 4.14 µM (inactive)
- GI50 (HCC 2998): 12.6 µM (inactive)
- GI50 (SN12C): 14.4 µM (inactive)
- GI50 (MDA-MB-231): 15.7 µM (inactive)
- GI50 (KM12): 20.5 µM (inactive)
- GI50 (K562): 3.78 µM (inactive)
- GI50 (SNB-75): 27.5 µM (inactive)
- GI50 (RXF 393): 5.93 µM (inactive)
- GI50 (SR): 3.94 µM (inactive)
- GI50 (IGROV-1): 14.9 µM (inactive)
- GI50 (OVCAR-8): 10.9 µM (inactive)
- GI50 (ACHN): 5.79 µM (inactive)
- GI50 (HOP-62): > 46.1 µM (inactive)
- GI50 (MCF7): 4.52 µM (inactive)
